Results as given in patent publication US9688653B2, “Ethoxyphenyl thienyl compounds and methods for the treatment of bacterial infections” (Duke University, priority 2013, dated 2017).
Where two headings read alike, the source gives them in different places.

Legend:
UPEC = experiment: Bacterial growth and viability without phage; format: cell-based, Escherichia coli
Method: Assay Set-up: This secondary assay was conducted in the 96 well plate format. […] Compounds were added to plates in a concentration dependent manner in the range of 100-0.39 μM, followed by addition of 100 μL of bacterial culture. Each concentration was tested in quadruplicate. 1% DMSO (final well concentration) was included. The plates were tape sealed and shaken vigorously for 1.5 hr. An initial OD600 reading at the time of infection was measured to identify compounds that cause growth retardation or bacterial killing in the absence of phage. Next, K1F phage (5 μL) was added to all of the test wells. The plates were resealed and shaken vigorously at 37° C., and measurements of OD600 for phage-mediated lysis were taken after 3 hr.
Assay Description: T7 phage-mediated lysis assay: This assay determined if the mechanism of action of the compound is inhibition of phage infectivity or replication. The T7 phage has a nearly identical genome to K1F, without encoding an endosialidase. Its cycle of replication is similar to that of K1F as well. However, T7 entry into E. coli is inhibited by K capsules. This secondary assay was conducted in the 96 well plate format. […] An initial OD600 reading was measured to identify compounds that cause growth retardation or bacterial killing in the absence of phage. […]

E. coli K1 strain UTI89 = experiment: Secondary assay 2: T7 phage-mediated lysis assay; format: cell-based, Escherichia coli
Method in brief: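 E. coli K1 UTI89 shaken 1.5 h with compound (100–0.39 μM, quadruplicate, 1% DMSO), initial OD600 taken to flag growth effects without phage. T7 phage, whose entry is blocked by K capsule, then added; OD600 lysis read after 3 h at 37 °C, greater lysis indicating less capsule.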

[1] = Plasma protein binding, mouse; format: in vitro ADME
[2] = Hepatic microsome stability, human; format: in vitro ADME; conditions: 37° C.
K1 capsule of UTI89 = experiment: Secondary assay 3: orcinol assay for released K1 capsule polysaccharide; format: cell-based, Escherichia coli
Method: E. Secondary Assay 3: Orcinol Secondary Screening for Inhibitors of Bacterial Capsule Biogenesis.
Purpose: This assay was performed only on the probe candidate. […] The biochemical determination of cell-surface associated capsule was performed using UTI89 or the Delta Region I and Delta Region II capsule mutant bacterial strains.
Purpose: This assay was performed only on the probe candidate. […] The biochemical determination of cell-surface associated capsule was performed using UTI89 or the delta Region I and Region II capsule mutant bacterial strains.
Assay Description: The biochemical measurement of cell-surface associated capsule was performed. UTI89 or capsule mutants were grown in culture tubes with and without the test compound (50 μM). The cultures were centrifuged, and the cell pellets were washed in PBS and resuspended in Tris buffer, pH5. […] Released polysaccharide was harvested by separation from whole bacteria by centrifugation followed by deproteination with phenol/chloroform and precipitation with ethanol. The precipitated material was subjected to acid hydrolysis (pH 2 at 80° C. for 1 hr) and incubated with orcinol, which reacts with periodic intermediates to produce a violet color quantified at OD 570 (3) Inhibitors reducing or abrogating surface encapsulation yielded low orcinol levels similar to the capsule export and synthesis mutants (Region I and II). The positive control drug C7 (100 μM final well concentration) was used in this screen.
Endpoint Read: The samples were read at ambient temperature from the bottom for absorbance at A570 in a BioTek Quantplate reader and the degree of orcinol-reactive material was determined based on the absorbance compared to a wild-type encapsulated strain (UTI89) and a standard curve using purified sialic acid.
Orcinol assay for released capsule material. Orcinol reactivity was used as a biochemical confirmation of altered extracellular capsule after compound treatment. UTI89 or an isogenic capsule mutant was grown in 100 μM of test compound or 1% DMSO. The assay was performed as previously described. The molecule C7 (100 μM final concentration) was used as a positive control. The assay was performed 3 times with replicate samples.

[3] = test system: Methicillin Resistant Staphylococcus aureus (MRSA) Strain USA300; experiment: Growth inhibition of MRSA in buffered TSB medium; format: cell-based
Method: FIG. 17. Inhibition of Methicillin Resistant Staphylococcus aureus (MRSA) Strain USA300 by ML317 (DU011). USA300 was grown shaking in TSB medium buffered at different pH as indicated in the figure with the addition of different concentrations of the chemical probe ML317. Growth was measured by absorbance readings as indicated.

[4] = Aqueous stability over 48 hours; format: physicochemical; conditions: aqueous PBS and 50:50 aqueous PBS:acetonitrile, room temperature
Method: Aqueous stability for the probe was assessed using two solvent systems (100% aqueous PBS, and 50:50 aqueous PBS: acetonitrile). The probe stability was measured in aqueous PBS (no antioxidants or other protectants, DMSO concentration below 0.1%, room temperature) and the results are reported as circles in the graph in FIG. 4. The probe stability was also measured in 50:50 aqueous PBS and acetonitrile and the results are reported as squares in the graph in FIG. 4. Stability data in each case is depicted as the loss of compound with time over 48 hours with a minimum of six time points and providing the percent compound remaining after 48 hours.

[5] = Hepatic microsome stability, mouse; format: in vitro ADME; conditions: 37° C.

## CCOc1ccc(-c2cc(NC(=O)c3c(F)cccc3F)c(C(=O)O)s2)cc1 [ML317, 3-(2,6-difluorobenzamido)-5-(4-ethoxyphenyl)thiophene-2-carboxylic acid]
UPEC; absence of immune factors
  Effect on in vitro growth and viability of UPEC: no effect
UPEC; highest tested concentration (100 μM)
  Effect on bacterial cell viability: no effect
E. coli K1 strain UTI89; Escherichia coli, commercial sample, SID 103147605, read-out: T7 phage assay IC50
  IC50: < 390 nM
E. coli K1 strain UTI89; Escherichia coli, first round of synthetic analogues, n = 2, read-out: T7 phage IC50
  IC50: < 625 nM
E. coli K1 strain UTI89; Escherichia coli, purchased analogue series, n = 2, read-out: T7 phage IC50
  IC50: < 390 nM
E. coli K1 strain UTI89; Escherichia coli, synthesized sample, SID 126497311, read-out: T7 phage assay IC50
  IC50: < 625 nM
E. coli K1 strain UTI89; listed as CID 23602075, read-out: T7 phage IC50
  IC50: < 390 nM
[1]; 1 μM
  Plasma Protein Binding (% Bound): 98.97 % Bound
[1]; 10 μM
  Plasma Protein Binding (% Bound): 99.31 % Bound
[2]
  Hepatic Microsome Stability, % remaining at 1 hr: 89.6 % remaining
K1 capsule of UTI89
  Bacterial capsule-dependent orcinol stain, % of the control sample: 21%
K1 capsule of UTI89; 100 μM, K1 strain UTI89
  Reduction of orcinol-reactive polysaccharides on surface of bacteria: ~80%
K1 capsule of UTI89; synthesized sample, SID 126497311
  Orcinol assay, % of control value: Orcinol assay 21%
[3]
  Mode of action on MRSA (culture of bacteria from the experiments): bactericidal
[3]; pH 5 and 5.5, TSB medium
  Concentration sufficient to produce inhibition of MRSA: 25 to 50 µM
[3]; pH 7, 100 and 200 μM
  Growth of MRSA: inhibited growth
[4]
  Aqueous stability: stable
[5]
  Hepatic Microsome Stability, % remaining at 1 hr: 74.3 % remaining
